Experimental data: article PMC10196118, “Evidence for broad cross-reactivity of the SARS-CoV-2 NSP12-directed CD4^+ T-cell response with pre-primed responses directed against common cold coronaviruses” (Frontiers in Immunology, 2023)

Tested on: pre-cultured PBMCs (NSP12-specific T cells)
Test: IFN-γ ELISpot with single 15-mer peptides after 11–13 days in vitro peptide-pool T-cell expansion
Format: cell-based, human
Settings: for peptide-specific response, donor HH-N12-18, post COVID-19 / peptide-specific response, donor HH-N12-34, post COVID-19 / peptide-specific response, donor HH-N12-35, post COVID-19 / peptide-specific response, donor HH-N12-36, post COVID-19 / peptide-specific response, donor HH-N12-37, post COVID-19 / peptide-specific T-cell response, donor HH-N12-18, post COVID-19 / peptide-specific T-cell response, donor HH-N12-34, post COVID-19 / peptide-specific T-cell response, donor HH-N12-35, post COVID-19 / peptide-specific T-cell response, donor HH-N12-36, post COVID-19 / peptide-specific T-cell response, donor HH-N12-37, post COVID-19: sample post COVID-19; for peptide-specific response, donor HH-N12-18, post COVID-19 / peptide-specific response, donor HH-N12-18, pre COVID-19 / peptide-specific response, donor HH-N12-34, post COVID-19 / peptide-specific response, donor HH-N12-34, pre COVID-19 / peptide-specific response, donor HH-N12-35, post COVID-19 / peptide-specific response, donor HH-N12-35, pre COVID-19 / peptide-specific response, donor HH-N12-36, post COVID-19 / peptide-specific response, donor HH-N12-36, pre COVID-19 / peptide-specific response, donor HH-N12-37, post COVID-19 / peptide-specific response, donor HH-N12-37, pre COVID-19: single NSP12 15-mer peptides; for peptide-specific response, donor HH-N12-18, pre COVID-19 / peptide-specific response, donor HH-N12-34, pre COVID-19 / peptide-specific response, donor HH-N12-35, pre COVID-19 / peptide-specific response, donor HH-N12-36, pre COVID-19 / peptide-specific response, donor HH-N12-37, pre COVID-19 / peptide-specific T-cell response, donor HH-N12-18, pre COVID-19 / peptide-specific T-cell response, donor HH-N12-34, pre COVID-19 / peptide-specific T-cell response, donor HH-N12-35, pre COVID-19 / peptide-specific T-cell response, donor HH-N12-36, pre COVID-19 / peptide-specific T-cell response, donor HH-N12-37, pre COVID-19: sample pre COVID-19; for peptide-specific T-cell response, donor HH-N12-18, post COVID-19 / peptide-specific T-cell response, donor HH-N12-18, pre COVID-19 / peptide-specific T-cell response, donor HH-N12-34, post COVID-19 / peptide-specific T-cell response, donor HH-N12-34, pre COVID-19 / peptide-specific T-cell response, donor HH-N12-35, post COVID-19 / peptide-specific T-cell response, donor HH-N12-35, pre COVID-19 / peptide-specific T-cell response, donor HH-N12-36, post COVID-19 / peptide-specific T-cell response, donor HH-N12-36, pre COVID-19 / peptide-specific T-cell response, donor HH-N12-37, post COVID-19 / peptide-specific T-cell response, donor HH-N12-37, pre COVID-19: single NSP12 15-mer peptide, 0 = no response

Row | Substance | peptide-specific response, donor HH-N12-18, post COVID-19 | peptide-specific response, donor HH-N12-18, pre COVID-19 | peptide-specific response, donor HH-N12-34, post COVID-19 | peptide-specific response, donor HH-N12-34, pre COVID-19 | peptide-specific response, donor HH-N12-35, post COVID-19 | peptide-specific response, donor HH-N12-35, pre COVID-19 | peptide-specific response, donor HH-N12-36, post COVID-19 | peptide-specific response, donor HH-N12-36, pre COVID-19 | peptide-specific response, donor HH-N12-37, post COVID-19 | peptide-specific response, donor HH-N12-37, pre COVID-19 | peptide-specific T-cell response, donor HH-N12-18, post COVID-19 | peptide-specific T-cell response, donor HH-N12-18, pre COVID-19 | peptide-specific T-cell response, donor HH-N12-34, post COVID-19 | peptide-specific T-cell response, donor HH-N12-34, pre COVID-19 | peptide-specific T-cell response, donor HH-N12-35, post COVID-19 | peptide-specific T-cell response, donor HH-N12-35, pre COVID-19 | peptide-specific T-cell response, donor HH-N12-36, post COVID-19 | peptide-specific T-cell response, donor HH-N12-36, pre COVID-19 | peptide-specific T-cell response, donor HH-N12-37, post COVID-19 | peptide-specific T-cell response, donor HH-N12-37, pre COVID-19
1 | LTKPYIKWDLLKYDF [compound 53] | 0.021 | 0.02 | 0 | 0 | 0 | 0 | 0 | 0 | 0 | 0 | – | – | – | – | – | – | – | – | – | –
2 | LVLARKHTTCCSLSH [compound 128] | 0 | 0 | 0 | 0 | 0 | 0 | 0 | 0 | 0 | 0 | – | – | – | – | – | – | – | – | – | –
3 | LYRNRDVDTDFVNEF [compound 147] | 0 | 0 | 0 | 0 | 0 | 0 | 0 | 0 | 0 | 0 | – | – | – | – | – | – | – | – | – | –
4 | MILSDDAVVCFNSTY [compound 152] | – | – | – | – | – | – | – | – | – | – | 0 | 0 | 0 | 0 | 0 | 0 | 0 | 0 | 0 | 0
5 | MLKTVYSDVENPHLM [compound 121] | 0 | 0 | 0 | 0 | 0 | 0 | 0.052 | 0 | 0 | 0 | – | – | – | – | – | – | – | – | – | –
6 | MRNAGIVGVLTLDNQ [compound 40] | 0 | 0 | 0.032 | 0 | 0 | 0 | 0 | 0 | 0 | 0 | – | – | – | – | – | – | – | – | – | –
7 | NFKSVLYYQNNVFMS [compound 157] | – | – | – | – | – | – | – | – | – | – | 0.3 | 0 | 0 | 0 | 0 | 0 | 0 | 0 | 0 | 0
8 | PNCVNCLDDRCILHC [compound 60] | 0 | 0 | 0 | 0 | 0 | 0 | 0.022 | 0 | 0 | 0 | – | – | – | – | – | – | – | – | – | –
9 | Peptide 110: 15-mer peptide of SARS-CoV-2 NSP12, aa 546-560 | 0 | 0 | 0.023 | 0 | 0 | 0 | 0 | 0 | 0 | 0 | – | – | – | – | – | – | – | – | – | –
10 | QFCDAMRNAGIVGVL [compound 39] | 0 | 0 | 0 | 0 | 0 | 0 | 0 | 0 | 0 | 0 | – | – | – | – | – | – | – | – | – | –
11 | QHEETIYNLLKDCPA [compound 17] | 0 | 0 | 0 | 0 | 0 | 0 | 0 | 0 | 0.021 | 0 | – | – | – | – | – | – | – | – | – | –
12 | RIMASLVLARKHTTC [compound 127] | 0 | 0.031 | 0 | 0 | 0 | 0.074 | 0 | 0 | 0 | 0.051 | – | – | – | – | – | – | – | – | – | –
13 | RLYECLYRNRDVDTD [compound 146] | 0 | 0 | 0.023 | 0 | 0 | 0 | 0 | 0 | 0 | 0.02 | – | – | – | – | – | – | – | – | – | –
